From paper PMC9611758, “Bioactive Platinum(IV) Complexes Incorporating Halogenated Phenylacetates” (Molecules, 2022)
“And” between values parts separate entries of the source, which are not always exact repeats. Identical values can stand only once. “Also recorded” adds a separate entry of the source. Like-named read-outs stand apart in the source and are kept apart here.

What was measured:
[1] = Lipophilicity by HPLC (log kw); format: physicochemical; details: for log kw: chromatographic lipophilicity index, extrapolated to 100% d.i.H2O; for log kw (y-intercept of log k versus [CH3CN] % plot, Figure S80): linear fit
Source text: For lipophilicity measurements, HPLC was utilised instead of the traditional shake-flask method, as described previously. Recent studies have also reported the efficiency of HPLC in measuring the lipophilicity of compounds [79, 80]. Each complex was eluted under several isocratic ratios. A standard curve was generated to calculate the log value of the capacity factor (log k) according to Equation (1). Following Equation (2), the percentage of organic solvent (CH3CN) in the mobile phase from each isocratic run was plotted against log kw (Figure S80). Log kw is the chromatographic lipophilicity index or measure of lipophilicity of the complex, so a higher value corresponds to greater lipophilicity. Because the selected axial ligands in this study contain F, Cl, Br, and I, it was only appropriate to determine the influence of the halogens on the overall lipophilicity of the platinum(IV) complexes. […] Conversely, the least lipophilic complex was the phen derivative containing 4-FPA, 3, with a log kw of 0.25. Furthermore, for the phen derivatives, the order of increasing lipophilicity was 3 > 1 > 5 > 7, which corresponds to the order of increasing size of the halogens, F > Cl > Br > I. This pattern was also observed with the 5,6-Me2phen derivatives (4 > 2 > 6 > 8), thereby confirming that the halogens increased the order of lipophilicity accordingly based on their size.
For lipophilicity measurements, analytical HPLC was utilised. Elution profiles were acquired on an Agilent (Melbourne, VIC, Australia) Technologies 1260 Infinity instrument equipped with a Phenomenex Onyx^TM Monolithic C18-reverse phase column (100 × 4.6 mm, 5 µm pore size) (Sydney, NSW, Australia). The mobile phase consisted of solvents, A (0.06% TFA in d.i.H2O) and B (0.06% TFA in CH3CN/d.i.H2O (90:10)). Potassium iodide was used as an external dead volume marker to determine the dead time of the column. Retention times (TR) were measured at varying isocratic ratios ranging from 30 to 36% of solvent B at 1 mL·min^−1 mL. An injection volume of 10 µL was utilised. Capacity factors were determined according to Equation (1):(1) k=(TR−T0)/T0 where k is the capacity factor, TR is the retention time of the analyte, and T0 represents the dead time. A minimum of four different mobile compositions were used for each complex to calculate k. A linear plot was generated of log k against the concentration of CH3CN in the mobile phase to determine the value of log kw expressed by Equation (2):(2) logk=Sφ+logkw where S is the slope, φ is the concentration of the CH3CN in the mobile phase, and log kw represents the capacity factor of the complex in 100% d.i.H2O. Extrapolation of this linear plot to the y-intercept indicates the log kw value.

MCF-7 breast = assay: MTT growth inhibition assay, MCF-7; format: cell-based, human; details: MTT assay, 72 h
HT29 colon cells = assay: ROS detection assay (DCFH-DA); format: cell-based, human; details: HT29 colon cells, treated at GI50 concentration (TBHP positive control 20 μM)
Source text: Although ROS is required for cancer cell function and progression, it can induce programmed cell death or apoptosis. […] In this study, we report the ROS activity of the studied platinum(IV) complexes, 1–8, together with the individual axial ligands (4-CPA, 4-FPA, 4-BPA, and 4-IPA) in the human cancer cell line, HT29 colon (Figure 19, Table 8, and Figure S95). The ROS potential of their platinum(II) and platinum(IV) precursors in the same cell line is also presented for comparison purposes (Table 8). […] HT29 colon cells were stained by DCFH-DA and then treated with the complexes at each specific GI50 concentration. Upon ROS production, the DCFH-DA produced dichlorodihydrofluorescein, a fluorescent product. The measured fluorescence was, therefore, proportional to the produced ROS.
To investigate the presence of ROS in treated cells, a DCFDA/H2DCFDA-cellular ROS Assay Kit (Abcam, Cambridge, MA, USA) was used, as previously described. A total of 25,000 cells/mL of HT29 cells in DMEM were seeded in 96-well plates. Cells were washed with 1X kit buffer, and then stained with 25 μM 2′,7′-dichlorofluorescein diacetate (DCFH-DA) and incubated for 45 min. DCFH-DA was then removed, and cells were then re-washed with 1X kit buffer, after which phenol red free media was added. Cells were then treated with a GI50 drug concentration for each complex. The plates were directly scanned to measure fluorescence (relative fluorescence units (RFU)) at different time points using the Glo-Max®-Multimode microplate reader (Promega Corporation, Alexandra, VIC, Australia) at an excitation/emission of 485/535 nm. To generate the positive control (20 μM tert-butyl hydroperoxide (TBHP)), cells were washed with 1X kit buffer, and stained with DCFDA (25 μM) for 45 min; this was removed and TBHP was added in phenol red free media, and the resulting solution was scanned as described above.

A2780 ovarian = assay: MTT growth inhibition assay, A2780; format: cell-based, human; details: 72 h
SJ-G2 glioblastoma = assay: MTT growth inhibition assay, SJ-G2; format: cell-based, human; details: 72 h
MIA pancreas = assay: MTT growth inhibition assay, MIA; format: cell-based, human; details: 72 h
U87 glioblastoma = assay: MTT growth inhibition assay, U87; format: cell-based, human; details: 72 h
BE2-C neuroblastoma = assay: MTT growth inhibition assay, BE2-C; format: cell-based, human; details: 72 h
A431 skin = assay: MTT growth inhibition assay, A431; format: cell-based, human; details: 72 h
[2] = test system: non-tumour derived MCF10A breast line; assay: MTT growth inhibition assay, MCF10A; format: cell-based, human; details: 72 h
HT29 colon = assay: MTT growth inhibition assay, HT29; format: cell-based, human; details: MTT assay, 72 h
[3] = test system: ADDP-resistant ovarian variant; assay: MTT growth inhibition assay, ADDP; format: cell-based, human; details: for GI50: MTT assay, 72 h
[4] = Reduction experiments with AsA by 1H-NMR and 1D-195Pt-NMR; format: physicochemical; details: D2O, 37 °C; for T50% (approximate time at which 50% reduction occurs): 10 mM PBS (~7.4 pH), 1H-NMR; for extent of reduction 1 h after the final 1H-NMR experiment (1D-195Pt-NMR): PBS, regions −2800 and 400 ppm
Source text: Platinum(IV) complexes are reduced to their platinum(II) precursors by intracellular biological reducing agents such as AsA or GSH in tumour cells. However, the precise mechanism by which reduction occurs is not fully understood. In this paper, reduction reaction experiments were undertaken on the synthesised platinum(IV) complexes, 1–8, with the aid of ^1H-NMR and 1D-^195Pt-NMR spectroscopy. The method used for the reduction reaction experiments was adapted from the literature without modifications. A total of 10 mM PBS (~7.4 pH) was selected as media, and AsA was used as the biological reducing agent to investigate the reduction property of 1–8. Prior to the reduction reaction experiments, a control was prepared where each metal complex was dissolved with PBS in D2O. 1D-^195Pt-NMR was measured within the regions of −2800 and 400 ppm (30 min per region), at 37 °C. This was undertaken to confirm that the PBS would not interfere with the reduction process of the metal complexes. […] The approximate time points for the studied complexes at which an estimated 50% reduction had occurred, in the presence of AsA, as represented by T50%, are summarised in Table 6.
The reduction properties of 1–8 were monitored using ^1H-NMR and 1D-^195Pt-NMR spectroscopy on a 400 MHz Bruker (Melbourne, VIC, Australia) Avance Spectrometer. A sequence of ^1H-NMR experiments was carried out for 1 h at 37 °C, followed by 1D-^195Pt-NMR within the regions of −2800 and 400 ppm. An amount of 10 mM PBS (~7.4 pH) was transferred to a vial and reduced to dryness through rotary evaporation. AsA (~1 mg) was combined with the metal complex (~5 mg) and transferred to the vial containing the dried PBS. A total of 600 µL of D2O was then added to the vial to dissolve the complex, AsA, and the PBS together.

H460 lung = assay: MTT growth inhibition assay, H460; format: cell-based, human; details: 72 h
panel of cell lines = assay: MTT growth inhibition assay, whole panel of cell lines; format: cell-based, human; details: average over the cell lines tested, MTT assay, 72 h
Du145 prostate = assay: MTT growth inhibition assay, Du145; format: cell-based, human; details: for GI50: MTT assay, 72 h
[5] = Du145 prostate, ratio of GI50 values

Compound | log kw [1] | log kw (y-intercept of log k versus [CH3CN] % plot, Figure S80) [1] | GI50 (MCF-7 breast) | ROS production 24 h (HT29 colon cells) | ROS production 48 h (HT29 colon cells) | ROS production 72 h (HT29 colon cells) | GI50 (A2780 ovarian) | GI50 (SJ-G2 glioblastoma) | GI50 (MIA pancreas) | GI50 (U87 glioblastoma) | GI50 (BE2-C neuroblastoma) | GI50 (A431 skin) | GI50 [2] | GI50 (HT29 colon) | GI50 [3] | T50% (approximate time at which 50% reduction occurs) [4] | extent of reduction 1 h after the final 1H-NMR experiment (1D-195Pt-NMR) [4] | GI50 (H460 lung) | GI50 (panel of cell lines) | GI50 (Du145 prostate) | further results
Cc1c(C)c2c3c4c1=CC=C[N]4[Pt+2]([OH])([O]C(=O)Cc1ccc(F)cc1)[N]3C=CC=2.N[C@H]1CCCC[C@@H]1N [Complex 4, [Pt^IV(5,6-Me2phen)(SS-DACH)(4-FPA)(OH)]^2+] | 0.80 | 0.8042 | 23 ± 5 nM | 579 ± 18 RFU | 681 ± 17 RFU | 738 ± 15 RFU | 20 ± 4 nM | 30 ± 8 nM | 5 ± 2 nM | 37 ± 5 nM | 110 ± 20 nM | 14 ± 2 nM | 11 ± 3 nM | 6 ± 2 nM | 6 ± 2 nM | 20 to 25 min | partial reduction | 10 ± 3 nM | 23 ± 4 nM | 0.7 ± 0.4 nM | fold more potent than cisplatin [3]: ~4700 fold; fold more potent than 56MESS (Du145 prostate; [5]): ~7 fold and 6.6 fold
N[C@H]1CCCC[C@@H]1N.O=C([O-])Cc1ccc(Br)cc1.[OH-].[Pt+4].c1cnc2c(c1)ccc1cccnc12 [Complex 5, [Pt^IV(phen)(SS-DACH)(4-BPA)(OH)]^2+] | 0.87 | 0.8765 | 850 ± 240 nM | 281 ± 16 RFU | 399 ± 12 RFU | 478 ± 9 RFU | 380 ± 50 nM | 350 ± 20 nM | 200 ± 20 nM | 1100 ± 230 nM | 960 ± 120 nM | 450 ± 10 nM | 320 ± 20 nM | 190 ± 20 nM | 250 ± 20 nM | 15 to 20 min | partial reduction | 320 ± 20 nM | 457 ± 70 nM | 110 ± 11 nM | 
Cc1c(C)c2c3c4c1=CC=C[N]4[Pt+2]([OH])([O]C(=O)Cc1ccc(Br)cc1)[N]3C=CC=2.N[C@H]1CCCC[C@@H]1N [Complex 6, [Pt^IV(5,6-Me2phen)(SS-DACH)(4-BPA)(OH)]^2+] | 1.07 | 1.0701 | 21 ± 5 nM | 496 ± 14 RFU | 598 ± 14 RFU | 643 ± 14 RFU | 20 ± 3 nM | 23 ± 5 nM | 7 ± 2 nM | 35 ± 5 nM | 100 ± 20 nM | 19 ± 0.9 nM | 10 ± 2 nM | 7 ± 2 nM | 6 ± 2 nM | 30 min | partial reduction; also recorded: traces of platinum(IV) species were still observed | 10 ± 2 nM | 22 ± 4 nM | 1 ± 0.6 nM | fold more potent than cisplatin ([3]; ADDP-resistant ovarian variant, ratio of GI50 values): ~4700 fold; fold more potent than 56MESS (Du145 prostate; [5]): 4.6 fold; fold more potent than cisplatin (Du145 prostate; [5]): 1200 fold
